Laboratory results published in US4624955A, “6H-isoxazolo[3,4-d]pyrazolo[3,4-b]pyridines, method for their preparation and use as anxiolytic agents” (Hoechst-Roussel Pharmaceuticals, priority 1985, dated 1986).
pIC50: −log10 of the molar value.

target: benzodiazepin recognition sites in a membrane preparation from rat brain; test: 3H-Flunitrazepam binding (displacement from benzodiazepine recognition sites; anxiolytic activity); parameters: species or system rat (male Wistar); conditions: rat cerebral cortex membranes; 2 nM 3H-flunitrazepam; pH 6.9; 20 minutes at 0-4 °C; log-probit analysis

Compared with `CCn1ncc2c3noc(-c4cccc(Cl)c4)c3cnc21` [3-(3-Chlorophenyl)-6-ethyl-6H-isoxazolo[3,4-d]pyrazolo[3,4-b]pyridine], `CCn1ncc2c3noc(-c4cccc(F)c4)c3cnc21` [6-Ethyl-3-(3-fluorophenyl)-6H-isoxazolo[3,4-d]pyrazolo[3,4-b]pyridine] is 0.28 log units higher in pIC50: 5.36 for the first, 5.64 for the second.

`CCn1ncc2c3noc(-c4ccc(Cl)cc4)c3cnc21` [3-(4-Chlorophenyl)-6-ethyl-6H-isoxazolo[3,4-d]pyrazolo[3,4-b]pyridine] and `CCn1ncc2c3noc(-c4ccc(F)cc4)c3cnc21` [6-Ethyl-3-(4-fluorophenyl)-6H-isoxazolo[3,4-d]pyrazolo[3,4-b]pyridine] are within 0.2 log units of each other in pIC50: 6.40 for the first, 6.28 for the second.

First: CCn1ncc2c3noc(-c4ccccc4OC)c3cnc21 [6-Ethyl-3-(2-methoxyphenyl)-6H-isoxazolo[3,4-d]pyrazolo[3,4-b]pyridine]
Second: CCn1ncc2c3noc(-c4ccccc4)c3cnc21 [6-Ethyl-3-phenyl-6H-isoxazolo[3,4-d]pyrazolo[3,4-b]pyridine]
The pIC50 of the first is 0.63 log units lower: 5.70 for the first, 6.33 for the second.

`CCn1ncc2c3noc(-c4ccc(OC)cc4)c3cnc21` [6-Ethyl-3-(4-methoxyphenyl)-6H-isoxazolo[3,4-d]pyrazolo[3,4-b]pyridine] and `CCn1ncc2c3noc(-c4ccc(C)cc4)c3cnc21` [6-Ethyl-3-(4-tolyl)-6H-isoxazolo[3,4-d]pyrazolo[3,4-b]pyridine] are within 0.2 log units of each other in pIC50: 5.92 for the first, 6.00 for the second.

`CNC1=Nc2ccc(Cl)cc2C(c2ccccc2)=[N+]([O-])C1` [Chlordiazepoxide, reference compound] showed a pIC50 of 6.47.
